pIC50: −log10 of the molar value.
Target: T1, active p38 alpha enzyme (Upstate Biotechnology) (Homo sapiens, UniProt Q16539)
T1 construct: purchased Upstate Biotechnology
Experiment: p38α biochemical assay (ATP turnover, luminescent detection, Cambrex PKlight)
Conditions: p38α biochemical assay, Table 1 Biological Activity
Summary of the method: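 p38α + MapkapK2 (whole protein substrate) + 1.4 uM ATP final; Tris/MOPS buffer with MgCl2, CaCl2, EGTA, EDTA, glycerol, β-ME, BSA; 2 h at 30C; luminescent detection of remaining ATP.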

T1 sequence (Q16539 whole entry): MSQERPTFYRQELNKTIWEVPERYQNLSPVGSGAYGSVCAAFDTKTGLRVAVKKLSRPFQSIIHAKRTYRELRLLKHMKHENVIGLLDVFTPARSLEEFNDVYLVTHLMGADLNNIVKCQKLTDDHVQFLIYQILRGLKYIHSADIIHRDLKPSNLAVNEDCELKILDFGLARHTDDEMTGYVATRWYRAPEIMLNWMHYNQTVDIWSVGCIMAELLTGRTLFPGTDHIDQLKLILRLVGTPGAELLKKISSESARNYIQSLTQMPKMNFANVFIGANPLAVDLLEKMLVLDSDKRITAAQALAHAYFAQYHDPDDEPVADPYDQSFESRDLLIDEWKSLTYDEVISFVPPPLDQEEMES

pIC50 | SMILES
≥ 6.00 | COc1cc(C(=O)N2CCN(Cc3nc(-c4ccc(F)cc4)c(-c4nc(C(=O)NC(C)C)cs4)o3)CC2)cc(OC)c1O [Example 503]
≥ 6.00 | CC(C)NC(=O)c1csc(-c2oc(CN3CCN(C(=O)c4ccccc4-c4ccccc4)CC3)nc2-c2ccc(F)cc2)n1 [Example 504]
< 6.00 | CC(C)NC(=O)c1csc(-c2oc(CN3CCN(C(=O)c4cccc(Br)c4)CC3)nc2-c2ccc(F)cc2)n1 [Example 505]
< 6.00 | CC(C)NC(=O)c1csc(-c2oc(CN3CCN(C(=O)c4ccc(Br)cc4)CC3)nc2-c2ccc(F)cc2)n1 [Example 506]
≥ 6.00 | CC(C)NC(=O)c1csc(-c2oc(CN3CCN(C(=O)c4cccc(Cl)c4[N+](=O)[O-])CC3)nc2-c2ccc(F)cc2)n1 [Example 507]
≥ 6.00 | CC(C)NC(=O)c1csc(-c2oc(CN3CCN(C(=O)C4N=CC([N+](=O)[O-])=CC=C4Cl)CC3)nc2-c2ccc(F)cc2)n1 (stereo not shown) [Example 508]
< 6.00 | CC(C)NC(=O)c1csc(-c2oc(CN3CCN(C(=O)c4ccc([N+](=O)[O-])cc4Cl)CC3)nc2-c2ccc(F)cc2)n1 [Example 509]
< 6.00 | CC(C)NC(=O)c1csc(-c2oc(CN3CCN(C(=O)c4ccc(Cl)cc4[N+](=O)[O-])CC3)nc2-c2ccc(F)cc2)n1 [Example 510]
< 6.00 | CC(C)NC(=O)c1csc(-c2oc(CN3CCN(C(=O)c4ccc(Cl)c([N+](=O)[O-])c4)CC3)nc2-c2ccc(F)cc2)n1 [Example 511]
< 6.00 | CC(C)NC(=O)c1csc(-c2oc(CN3CCN(C(=O)c4cc(Cl)ccc4[N+](=O)[O-])CC3)nc2-c2ccc(F)cc2)n1 [Example 512]
< 6.00 | CC(C)NC(=O)c1csc(-c2oc(CN3CCN(C(=O)c4cccc(Br)n4)CC3)nc2-c2ccc(F)cc2)n1 [Example 513]
< 6.00 | CC(C)NC(=O)c1csc(-c2oc(CN3CCN(C(=O)c4cncc(Br)c4)CC3)nc2-c2ccc(F)cc2)n1 [Example 514]
≥ 6.00 | CC(C)NC(=O)c1csc(-c2oc(CN3CCN(C(=O)c4cc(F)c(F)cc4[N+](=O)[O-])CC3)nc2-c2ccc(F)cc2)n1 [Example 515]
≥ 6.00 | CC(C)NC(=O)c1csc(-c2oc(CN3CCN(C(=O)Cc4ccc(C(F)(F)F)cc4)CC3)nc2-c2ccc(F)cc2)n1 [Example 516]
≥ 6.00 | CC(C)Cc1ccc(C(C)C(=O)N2CCN(Cc3nc(-c4ccc(F)cc4)c(-c4nc(C(=O)NC(C)C)cs4)o3)CC2)cc1 (stereo not shown) [Example 517]
< 6.00 | CC(C)NC(=O)c1csc(-c2oc(CN3CCN(C(=O)c4cc(Cl)c(O)c(Cl)c4)CC3)nc2-c2ccc(F)cc2)n1 [Example 518]
≥ 6.00 | CC(C)NC(=O)c1csc(-c2oc(CN3CCN(C(=O)c4c(F)c(F)c(F)c(F)c4F)CC3)nc2-c2ccc(F)cc2)n1 [Example 519]
≥ 6.00 | COc1cc(OC)c(C(=O)N2CCN(Cc3nc(-c4ccc(F)cc4)c(-c4nc(C(=O)NC(C)C)cs4)o3)CC2)c(OC)c1 [Example 520]
≥ 6.00 | COc1cc(OC)c(C(=O)N2CCN(Cc3nc(-c4ccc(F)cc4)c(-c4nc(C(=O)NC(C)C)cs4)o3)CC2)cc1OC [Example 521]
< 6.00 | COc1cc(C(=O)N2CCN(Cc3nc(-c4ccc(F)cc4)c(-c4nc(C(=O)NC(C)C)cs4)o3)CC2)cc(OC)c1OC [Example 522]
≥ 6.00 | COc1ccc(C(=O)N2CCN(Cc3nc(-c4ccc(F)cc4)c(-c4nc(C(=O)NC(C)C)cs4)o3)CC2)c(OC)c1OC [Example 523]

pIC50 | SMILES
≥ 6.00 | CC(C)NC(=O)c1csc(-c2oc(CN3CCN(C(=O)c4ccccc4Cc4ccccc4)CC3)nc2-c2ccc(F)cc2)n1 [Example 524]
< 6.00 | CC(C)NC(=O)c1csc(-c2oc(CN3CCN(C(=O)c4cccc(Oc5ccccc5)c4)CC3)nc2-c2ccc(F)cc2)n1 [Example 525]
< 6.00 | CC(C)NC(=O)c1csc(-c2oc(CN3CCN(C(=O)c4ccccc4Oc4ccccc4)CC3)nc2-c2ccc(F)cc2)n1 [Example 526]
≥ 6.00 | CC(C)NC(=O)c1csc(-c2oc(CN3CCN(C(=O)c4ccc(Oc5ccccc5)cc4)CC3)nc2-c2ccc(F)cc2)n1 [Example 527]
≥ 6.00 | CC(C)NC(=O)c1csc(-c2oc(CN3CCN(C(=O)c4ccc(-c5ccc(O)cc5)cc4)CC3)nc2-c2ccc(F)cc2)n1 [Example 528]
< 6.00 | Cc1cc(C(=O)N2CCN(Cc3nc(-c4ccc(F)cc4)c(-c4nc(C(=O)NC(C)C)cs4)o3)CC2)ccc1Br [Example 529]
< 6.00 | Cc1ccc(C(=O)N2CCN(Cc3nc(-c4ccc(F)cc4)c(-c4nc(C(=O)NC(C)C)cs4)o3)CC2)cc1Br [Example 530]
≥ 6.00 | CC(C)NC(=O)c1csc(-c2oc(CN3CCN(C(=O)Cc4ccc(Br)cc4)CC3)nc2-c2ccc(F)cc2)n1 [Example 531]
≥ 6.00 | CC(C)NC(=O)c1csc(-c2oc(CN3CCN(C(=O)C4CCCN4C(=O)OC(C)(C)C)CC3)nc2-c2ccc(F)cc2)n1 (stereo not shown) [Example 532]
< 6.00 | CC(C)NC(=O)c1csc(-c2oc(CN3CCN(C(=O)/C=C/c4ccccc4C(F)(F)F)CC3)nc2-c2ccc(F)cc2)n1 [Example 533]
≥ 6.00 | CCOc1ccc2ccccc2c1C(=O)N1CCN(Cc2nc(-c3ccc(F)cc3)c(-c3nc(C(=O)NC(C)C)cs3)o2)CC1 [Example 534]
< 6.00 | CC(C)NC(=O)c1csc(-c2oc(CN3CCN(C(=O)C(NC(=O)OC(C)(C)C)C(C)C)CC3)nc2-c2ccc(F)cc2)n1 (stereo not shown) [Example 535]
< 6.00 | CC(C)NC(=O)c1csc(-c2oc(CN3CCN(C(=O)C(NC(=O)OC(C)(C)C)C(C)C)CC3)nc2-c2ccc(F)cc2)n1 (stereo not shown) [Example 536]
< 6.00 | CC(C)NC(=O)c1csc(-c2oc(CN3CCN(C(=O)CCc4cccc(C(F)(F)F)c4)CC3)nc2-c2ccc(F)cc2)n1 [Example 537]
< 6.00 | CC1=NN(c2ccc(C(=O)N3CCN(Cc4nc(-c5ccc(F)cc5)c(-c5nc(C(=O)NC(C)C)cs5)o4)CC3)cc2)C(=O)C1 [Example 538]
< 6.00 | Cc1nc(Br)sc1C(=O)N1CCN(Cc2nc(-c3ccc(F)cc3)c(-c3nc(C(=O)NC(C)C)cs3)o2)CC1 [Example 539]
< 6.00 | CC(C)NC(=O)c1csc(-c2oc(CN3CCN(C(=O)c4c5ccccc5cc5ccccc45)CC3)nc2-c2ccc(F)cc2)n1 [Example 540]
< 6.00 | CC(C)NC(=O)c1csc(-c2oc(CN3CCN(C(=O)c4cc(C(C)C)cc(C(C)C)c4O)CC3)nc2-c2ccc(F)cc2)n1 [Example 541]
< 6.00 | CC(=O)NC(Cc1ccc(O)cc1)C(=O)N1CCN(Cc2nc(-c3ccc(F)cc3)c(-c3nc(C(=O)NC(C)C)cs3)o2)CC1 (stereo not shown) [Example 542]
< 6.00 | CC(C)NC(=O)c1csc(-c2oc(CN3CCN(C(=O)c4c(Cl)cc(Cl)cc4Cl)CC3)nc2-c2ccc(F)cc2)n1 [Example 543]
< 6.00 | COc1cc(C(=O)N2CCN(Cc3nc(-c4ccc(F)cc4)c(-c4nc(C(=O)NC(C)C)cs4)o3)CC2)c([N+](=O)[O-])cc1OC [Example 544]

pIC50 | SMILES
< 6.00 | CC(C)NC(=O)c1csc(-c2oc(CN3CCN(C(=O)c4ccc(OCc5ccccc5)cc4)CC3)nc2-c2ccc(F)cc2)n1 [Example 545]
< 6.00 | CC(C)NC(=O)c1csc(-c2oc(CN3CCN(C(=O)CCc4ccccc4Br)CC3)nc2-c2ccc(F)cc2)n1 [Example 546]
< 6.00 | CC(C)NC(=O)c1csc(-c2oc(CN3CCN(C(=O)CCc4cccc(Br)c4)CC3)nc2-c2ccc(F)cc2)n1 [Example 547]
< 6.00 | CC(C)NC(=O)c1csc(-c2oc(CN3CCN(C(=O)C4CCCCN4C(=O)OC(C)(C)C)CC3)nc2-c2ccc(F)cc2)n1 (stereo not shown) [Example 548]
< 6.00 | CC(C)NC(=O)c1csc(-c2oc(CN3CCN(C(=O)c4ccc(Oc5cccc(O)c5)cc4)CC3)nc2-c2ccc(F)cc2)n1 [Example 549]
< 6.00 | COc1ccc2cc(C(C)C(=O)N3CCN(Cc4nc(-c5ccc(F)cc5)c(-c5nc(C(=O)NC(C)C)cs5)o4)CC3)ccc2c1 (stereo not shown) [Example 550]
< 6.00 | CC(C)NC(=O)c1csc(-c2oc(CN3CCN(C(=O)C4CN(C(=O)OC(C)(C)C)CCN4)CC3)nc2-c2ccc(F)cc2)n1 (stereo not shown) [Example 551]
< 6.00 | CC(C)NC(=O)c1csc(-c2oc(CN3CCN(C(=O)C4CN(C(=O)OC(C)(C)C)CCN4)CC3)nc2-c2ccc(F)cc2)n1 (stereo not shown) [Example 552]
< 6.00 | COc1ccc(Br)c(C(=O)N2CCN(Cc3nc(-c4ccc(F)cc4)c(-c4nc(C(=O)NC(C)C)cs4)o3)CC2)c1 [Example 553]
< 6.00 | CC(C)NC(=O)c1csc(-c2oc(CN3CCN(C(=O)C4CC(O)CN4C(=O)OC(C)(C)C)CC3)nc2-c2ccc(F)cc2)n1 (stereo not shown) [Example 554]
< 6.00 | CC(C)NC(=O)c1csc(-c2oc(CN3CCN(C(=O)C(C(C)C)N(C)C(=O)OC(C)(C)C)CC3)nc2-c2ccc(F)cc2)n1 (stereo not shown) [Example 555]
< 6.00 | CC(C)NC(=O)c1csc(-c2oc(CN3CCN(C(=O)c4ccc(C(F)(F)F)cc4[N+](=O)[O-])CC3)nc2-c2ccc(F)cc2)n1 [Example 556]
< 6.00 | CC(C)NC(=O)c1csc(-c2oc(CN3CCN(C(=O)c4cc(Br)ccc4Cl)CC3)nc2-c2ccc(F)cc2)n1 [Example 557]
< 6.00 | CC(C)NC(=O)c1csc(-c2oc(CN3CCN(C(=O)c4ccc(Cl)c(Br)c4)CC3)nc2-c2ccc(F)cc2)n1 [Example 558]
< 6.00 | CC(C)NC(=O)c1csc(-c2oc(CN3CCN(C(=O)c4ccccc4C(=O)c4ccc(O)cc4)CC3)nc2-c2ccc(F)cc2)n1 [Example 559]
< 6.00 | CC(C)NC(=O)c1csc(-c2oc(CN3CCN(C(=O)c4ccccc4C(=O)c4ccc(F)cc4)CC3)nc2-c2ccc(F)cc2)n1 [Example 560]
< 6.00 | CC(C)NC(=O)c1csc(-c2oc(CN3CCN(C(=O)C(C)c4ccc(-c5ccccc5)c(F)c4)CC3)nc2-c2ccc(F)cc2)n1 (stereo not shown) [Example 561]
< 6.00 | CC(C)NC(=O)c1csc(-c2oc(CN3CCN(C(=O)C4CCCN4C(=O)OCc4ccccc4)CC3)nc2-c2ccc(F)cc2)n1 (stereo not shown) [Example 564]
< 6.00 | CCC(C)C(NC(=O)OC(C)(C)C)C(=O)N1CCN(Cc2nc(-c3ccc(F)cc3)c(-c3nc(C(=O)NC(C)C)cs3)o2)CC1 (stereo not shown) [Example 565]
